In US20240116988A1, “ANTI-ROR1 MACROCYCLIC PEPTIDES AND COMPOSITIONS” (BRISTOL-MYERS SQUIBB COMPANY, priority 2022, published 2024):
Positions of bridges follow the written chain, without caps; N, C: chain ends. Non-standard residues stand in square brackets, D forms with d. Residues, ends and D or L forms follow the SMILES beside them. ξ: configuration not given here. NMeF = CN[C@@H](Cc1ccccc1)C(=O)O; ξY = NC(Cc1ccc(O)cc1)C(=O)O; NMeA = CN[C@@H](C)C(=O)O; ξF = NC(Cc1ccccc1)C(=O)O

Each molecule was assayed against T1, human ROR1 (Homo sapiens, UniProt Q01973) (assay: ROR1 high content cell-based binding assay). Settings: read-out: ROR1 Binding 293T Human HC Cell Based Assay IC50.
T1 construct: host or cells: HEK 293T cells, Tet-on system induced with doxycycline
Method: ROR1 high content cell-based binding assay: Human embryonic kidney 293T cells (293T) expressing human ROR1 with Tet-on system by doxycycline were used (Arctic-488134) for the assessment of inhibition of the binding of fluorescently-labeled competing peptide (“Probe”) that specifically binds to human ROR1. […] Cryopreserved vials were thawed in a 37° C. water bath. Cells were washed in assay culture media [DMEM (Life Technologies Inc. Cat. […] Cat. No. 15140-122) and […] dox] and diluted 1.0×10^5 cells/mL. Cells were seeded into PDL-coated 384 well plates (BD Falcon Cat. No. 356663) at 2,000 cells/20 μL. Plates were allowed to incubate for 10 minutes at room temperature and then transferred to a 37° C./5% CO2 incubator for overnight incubation. The next day, 125 nL of the test compound was added using an ECHO followed by the addition of 5 μL/well of 5-FAM-labeled probe to cells at a final concentration of 30 nM. Sample were incubated for 1 hour at 37° C. for 1 hour, followed by 3 washes in […] of dPBS. Cells were fixed by adding 8% (w/v) formaldehyde (Sigma Cat. No. 252549), 20 μg/mL Hoechst (Thermo Scientific Cat. No. 62249) in PBS for 20 minutes at room temperature. The plates were washed 3 more times in dPBS and 15 μl of PBS was left in the wells following the last wash. The plates were sealed, and data was using obtained using a CellInsight NXT High Content Screening Platform IC903000 (Thermo Scientific).

T1 sequence (Q01973 30-937): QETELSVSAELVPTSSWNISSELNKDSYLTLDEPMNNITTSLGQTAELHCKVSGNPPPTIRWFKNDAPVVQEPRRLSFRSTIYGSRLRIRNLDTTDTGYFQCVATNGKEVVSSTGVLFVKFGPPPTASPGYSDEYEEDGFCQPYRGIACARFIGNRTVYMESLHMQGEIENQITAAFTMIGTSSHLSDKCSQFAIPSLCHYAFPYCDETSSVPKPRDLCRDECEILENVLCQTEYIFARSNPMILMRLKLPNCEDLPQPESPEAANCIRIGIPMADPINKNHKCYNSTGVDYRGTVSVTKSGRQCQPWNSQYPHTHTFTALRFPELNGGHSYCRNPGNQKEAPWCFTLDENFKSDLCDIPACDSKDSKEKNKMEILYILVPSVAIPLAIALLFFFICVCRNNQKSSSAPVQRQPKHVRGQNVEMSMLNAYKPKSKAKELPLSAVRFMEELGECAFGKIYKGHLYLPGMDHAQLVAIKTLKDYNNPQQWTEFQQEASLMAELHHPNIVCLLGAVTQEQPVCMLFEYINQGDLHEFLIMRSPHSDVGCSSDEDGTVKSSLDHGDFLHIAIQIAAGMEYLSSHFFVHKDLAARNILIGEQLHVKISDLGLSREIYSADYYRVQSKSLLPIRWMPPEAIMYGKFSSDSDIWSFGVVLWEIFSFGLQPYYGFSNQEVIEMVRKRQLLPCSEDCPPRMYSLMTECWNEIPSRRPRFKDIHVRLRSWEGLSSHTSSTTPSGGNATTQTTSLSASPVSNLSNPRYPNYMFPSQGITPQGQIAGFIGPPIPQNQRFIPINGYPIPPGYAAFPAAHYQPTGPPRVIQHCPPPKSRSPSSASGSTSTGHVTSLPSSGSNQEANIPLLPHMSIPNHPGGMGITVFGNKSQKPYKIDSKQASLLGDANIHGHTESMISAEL

Row | SMILES | IC50 [µM]
1 | CC(C)C[C@@H]1NC(=O)[C@H](Cc2ccc(O)cc2)NC(=O)[C@H](Cc2ccccc2)NC(=O)CSC[C@@H](C(=O)NCC(N)=O)NC(=O)[C@H](CC(C)C)NC(=O)[C@H](Cc2ccccc2)N(C)C(=O)[C@H](Cc2ccc(O)cc2)NC(=O)[C@H](Cc2c[nH]c3ccccc23)NC(=O)CNC(=O)[C@H](CO)NC(=O)[C@H](CCCNC(=N)N)NC(=O)[C@H](C(C)C)NC1=O [Example 1023] ({CH2CO}-FYLVRSGWY[NMeF]LCG-NH2; thioether N-12) | 0.079
2 | CC[C@H](C)[C@@H]1NC(=O)CSC[C@@H](C(=O)NCC(N)=O)NC(=O)[C@H](CC(C)C)NC(=O)[C@H](Cc2ccccc2)N(C)C(=O)[C@H](Cc2ccc(O)cc2)NC(=O)[C@H](Cc2c[nH]c3ccccc23)NC(=O)CNC(=O)[C@H](CO)NC(=O)[C@H](Cc2ccc(O)cc2)NC(=O)[C@H](C(C)C)NC(=O)[C@H](CC(C)C)NC(=O)[C@H](Cc2ccc(O)cc2)NC1=O [Example 1084] ({CH2CO}-IYLVYSGWY[NMeF]LCG-NH2; thioether N-12) | 0.227
3 | CC(C)C[C@@H]1NC(=O)[C@H](CC(C)C)NC(=O)[C@H](Cc2ccccc2)N(C)C(=O)CNC(=O)[C@H](Cc2ccc(O)cc2)NC(=O)[C@H](Cc2ccccc2)NC(=O)CSC[C@@H](C(N)=O)NC(=O)[C@H](Cc2c[nH]c3ccccc23)NC(=O)[C@H](Cc2ccc(O)cc2)NC1=O [Example 1106] ({CH2CO}-FYG[NMeF]LLYWC-NH2; thioether N-9) | 0.483
4 | CC(C)C[C@@H]1NC(=O)[C@H](Cc2ccc(O)cc2)NC(=O)[C@H](Cc2ccccc2)NC(=O)CSC[C@@H](C(=O)NCC(N)=O)NC(=O)CNC(=O)[C@H](Cc2ccccc2)N(C)C(=O)[C@H](Cc2ccc(O)cc2)NC(=O)[C@H](Cc2c[nH]c3ccccc23)NC(=O)CNC(=O)[C@H](CO)NC(=O)[C@H](Cc2ccc(O)cc2)NC(=O)[C@H](C(C)C)NC1=O [Example 1065] ({CH2CO}-FYLVYSGWY[NMeF]GCG-NH2; thioether N-12) | 0.022
5 | CC(C)C[C@@H]1NC(=O)[C@H](Cc2ccc(O)cc2)NC(=O)[C@H](Cc2ccccc2)N(C)C(=O)CNC(=O)[C@H](Cc2ccc(O)cc2)NC(=O)[C@H](Cc2ccccc2)NC(=O)CSC[C@@H](C(N)=O)NC(=O)[C@H](Cc2c[nH]c3ccccc23)NC(=O)[C@H](Cc2ccc(O)cc2)NC1=O [Example 1115] ({CH2CO}-FYG[NMeF]YLYWC-NH2; thioether N-9) | 0.094
6 | CC(C)C[C@@H]1NC(=O)[C@H](Cc2ccc(O)cc2)NC(=O)[C@H](Cc2ccccc2)NC(=O)CSC[C@@H](C(=O)NCC(N)=O)NC(=O)[C@H](CC(C)C)NC(=O)[C@H](Cc2ccccc2)N(C)C(=O)[C@H](Cc2ccc(O)cc2)NC(=O)[C@H](Cc2c[nH]c3ccccc23)NC(=O)CNC(=O)[C@H](CO)NC(=O)[C@H](CC(N)=O)NC(=O)[C@H](C(C)C)NC1=O [Example 1024] ({CH2CO}-FYLVNSGWY[NMeF]LCG-NH2; thioether N-12) | 0.62
7 | CC(C)C[C@@H]1NC(=O)[C@H](Cc2ccc(O)cc2)NC(=O)[C@H](Cc2ccccc2)NC(=O)CSC[C@@H](C(=O)NCC(N)=O)NC(=O)[C@@H](C)NC(=O)[C@H](Cc2ccccc2)N(C)C(=O)[C@H](Cc2ccc(O)cc2)NC(=O)[C@H](Cc2c[nH]c3ccccc23)NC(=O)CNC(=O)[C@H](CO)NC(=O)[C@H](Cc2ccc(O)cc2)NC(=O)[C@H](C(C)C)NC1=O [Example 1061] ({CH2CO}-FYLVYSGWY[NMeF][dA]CG-NH2; thioether N-12) | 0.645
8 | CC(C)C[C@@H]1NC(=O)[C@H](Cc2ccccc2)NC(=O)CSC[C@@H](C(=O)NCC(N)=O)NC(=O)[C@H](C)NC(=O)[C@H](Cc2ccc(O)cc2)NC(=O)[C@H](Cc2ccc(O)cc2)NC(=O)[C@H](Cc2c[nH]c3ccccc23)NC(=O)CNC(=O)[C@H](Cc2ccc(O)cc2)NC(=O)[C@H](CCCNC(=N)N)NC(=O)[C@H](C(C)C)NC(=O)[C@H](Cc2c[nH]c3ccccc23)NC1=O [Example 1005] ({CH2CO}-FLWVRYGWYYACG-NH2; thioether N-12) | 0.03
9 | CC(C)C[C@@H]1NC(=O)[C@H](Cc2ccccc2)N(C)C(=O)[C@H](Cc2ccc(O)cc2)NC(=O)[C@H](Cc2c[nH]c3ccccc23)NC(=O)CNC(=O)[C@H](CO)NC(=O)[C@H](Cc2ccc(O)cc2)NC(=O)[C@H](C(C)C)NC(=O)[C@H](C)N(C)C(=O)[C@H](Cc2ccc(O)cc2)NC(=O)[C@H](Cc2ccccc2)NC(=O)CSC[C@@H](C(=O)NCC(N)=O)NC1=O [Example 1062] ({CH2CO}-FY[NMeA]VYSGWY[NMeF]LCG-NH2; thioether N-12) | 0.02
10 | CC(C)C[C@@H]1NC(=O)[C@H](CC(N)=O)NC(=O)[C@H](Cc2ccccc2)N(C)C(=O)CNC(=O)[C@H](Cc2ccc(O)cc2)NC(=O)[C@H](Cc2ccccc2)NC(=O)CSC[C@@H](C(=O)NCC(N)=O)NC(=O)[C@H](Cc2c[nH]c3ccccc23)NC(=O)[C@H](Cc2ccc(O)cc2)NC1=O [Example 1100] ({CH2CO}-FYG[NMeF]NLYWCG-NH2; thioether N-9) | 0.121
11 | CC(C)C[C@@H]1NC(=O)[C@H](Cc2ccccc2)NC(=O)[C@H](Cc2ccc(O)cc2)NC(=O)[C@H](Cc2c[nH]c3ccccc23)NC(=O)CNC(=O)[C@H](CO)NC(=O)[C@H](Cc2ccc(O)cc2)NC(=O)[C@H](C(C)C)NC(=O)[C@H](CC(C)C)NC(=O)[C@H](Cc2ccc(O)cc2)NC(=O)[C@H](Cc2ccccc2)NC(=O)CSC[C@@H](C(=O)NCC(N)=O)NC1=O [Example 1070] ({CH2CO}-FYLVYSGWYFLCG-NH2; thioether N-12) | 0.065
12 | CC(C)C[C@@H]1NC(=O)[C@H](Cc2ccc(O)cc2)NC(=O)[C@H](Cc2ccccc2)NC(=O)CSC[C@@H](C(=O)NCC(N)=O)NC(=O)[C@H](CC(C)C)NC(=O)[C@H](Cc2ccccc2)N(C)C(=O)[C@H](Cc2ccc(O)cc2)NC(=O)[C@H](Cc2c[nH]c3ccccc23)NC(=O)CNC(=O)[C@H](CO)NC(=O)CNC(=O)[C@H](C(C)C)NC1=O [Example 1025] ({CH2CO}-FYLVGSGWY[NMeF]LCG-NH2; thioether N-12) | 0.365
13 | CC(C)C[C@@H]1NC(=O)[C@H](Cc2c[nH]c3ccccc23)NC(=O)[C@H](Cc2ccc(O)cc2)NC(=O)[C@H](Cc2c[nH]c3ccccc23)NC(=O)CNC(=O)[C@H](CC(=O)O)NC(=O)[C@H](Cc2ccc(O)cc2)NC(=O)[C@H](C(C)C)NC(=O)[C@@H]2CCCN2C(=O)[C@H](Cc2ccc(O)cc2)NC(=O)[C@H](Cc2ccccc2)NC(=O)CSC[C@@H](C(N)=O)NC1=O [Example 1094] ({CH2CO}-FYPVYDGWYWLC-NH2; thioether N-12) | 0.014
14 | CC(C)C[C@@H]1NC(=O)[C@@H](C)NC(=O)[C@H](Cc2ccccc2)N(C)C(=O)CNC(=O)[C@H](Cc2ccc(O)cc2)NC(=O)[C@H](Cc2ccccc2)NC(=O)CSC[C@@H](C(N)=O)NC(=O)[C@H](Cc2c[nH]c3ccccc23)NC(=O)[C@H](Cc2ccc(O)cc2)NC1=O [Example 1116] ({CH2CO}-FYG[NMeF][dA]LYWC-NH2; thioether N-9) | 0.183
15 | CC(C)C[C@@H]1NC(=O)[C@H](Cc2ccc(O)cc2)NC(=O)[C@H](Cc2ccccc2)N(C)C(=O)CNC(=O)[C@H](Cc2ccc(O)cc2)NC(=O)C(Cc2ccccc2)NC(=O)CSC[C@@H](C(=O)NCC(N)=O)NC(=O)[C@H](Cc2c[nH]c3ccccc23)NC(=O)C(Cc2ccc(O)cc2)NC1=O (stereo partly drawn) [Example 1112] ({CH2CO}-[ξF]YG[NMeF]YL[ξY]WCG-NH2; thioether N-9) | 0.147
